# Several values for one entry are separate records, joined by “and”; a condition that tells them apart may be missing. Identical values can stand only once.
# Experiments:
# Guinea pigs = experiment: Cisplatin-induced hearing loss; type: in vivo, guinea pig; conditions: subcutaneous, prior to cisplatin
# Description: The effects of high level noise and ototoxic drugs, such as cisplatin or the class of aminoglycosides, share several common features in the inner ear. First, the noise and/or drugs alter the free radical/antioxidant levels in the cochlea (inner ear). […] Guinea pigs (N=7) were used in studies of cisplatin-induced hearing loss. The animals' hearing sensitivity was measured using standard electrophysical techniques before the experimental manipulation. […] Animals were anesthetized and treated with cisplatin. Subsequently, the animals' hearing was tested to determine evoked potential threshold shifts.
# Animals were treated subcutaneously with KX1-004 prior to the cisplatin-induced hearing loss.
# Chinchillas [1] = experiment: Noise-induced hearing loss, round window application (Example 8); type: in vivo, chinchilla; design: threshold shift, 0.5 kHz / threshold shift, 1 kHz / threshold shift, 2 kHz / threshold shift, 4 kHz / threshold shift, 8 kHz / average threshold shift, 0.5 kHz / average threshold shift, 1 kHz / average threshold shift, 2 kHz / average threshold shift, 4 kHz / average threshold shift, 8 kHz: unit not given here; conditions: for average threshold shift, 0.5 kHz / average threshold shift, 1 kHz / average threshold shift, 2 kHz / average threshold shift, 4 kHz / average threshold shift, 8 kHz: Table XIV; for threshold shift, 0.5 kHz / threshold shift, 1 kHz / threshold shift, 2 kHz / threshold shift, 4 kHz / threshold shift, 8 kHz: individual animals, listed as CH65
# Description: Chinchillas (N=8) were used in studies of noise-induced hearing loss. The animals' hearing sensitivity was measured using standard electrophysical techniques before the experimental manipulation. […] Animals were anesthetized, the auditory bullae were opened, and the left and right cochleas were visualized. The round window leading to the scala tympani of the cochlea was used as the access point for drug application. […] In each case, the solution was allowed to set on the round window for 30 minutes, then the auditory bullae were closed. Subsequently, the animals were exposed to 4 kHz band noise at 105 dB SPL for four hours. Following the noise exposure, the animals' hearing was tested at day 1, day 3, day 7, and day 20 to determine evoked potential threshold shifts. Permanent threshold shift was assessed at day 20. The cochleas were harvested at day 20 to allow for morphological examination of the cochleas.
# Chinchillas [2] = experiment: Noise-induced hearing loss, round window application (Example 12); type: in vivo, chinchilla; conditions: 4 kHz band noise at 105 dB SPL, four hours, day 1, 7, 21
# Description: Chinchillas (N=6) were used in studies of noise-induced hearing loss. The animals' hearing sensitivity was measured using standard electrophysical techniques before the experimental manipulation. […] Animals were anesthetized, the auditory bullae were opened, and the left and right cochleas were visualized. The round window leading to the scala tympani of the cochlea was used as the access point for drug application. […] A control solution of 3 mM DMSO in […] of saline solution was placed on the round window of the other ear. The solution was allowed to set on the round window for 30 minutes, then the auditory bullae were closed. Subsequently, the animals were exposed to 4 kHz band noise at 105 dB SPL for four hours. Following the noise exposure, the animals' hearing was tested at day 1, day 7, and day 21 to determine evoked potential threshold shifts. Permanent threshold shift was assessed at day 21.
# pp60^c-src [3] = molecular target: T1, pp60^c-src (Homo sapiens, UniProt P12931); conditions: literature value; read-out: IC50 (μM), Lit; cited from earlier work
# Target sequence in this assay (P12931 whole entry, species assumed): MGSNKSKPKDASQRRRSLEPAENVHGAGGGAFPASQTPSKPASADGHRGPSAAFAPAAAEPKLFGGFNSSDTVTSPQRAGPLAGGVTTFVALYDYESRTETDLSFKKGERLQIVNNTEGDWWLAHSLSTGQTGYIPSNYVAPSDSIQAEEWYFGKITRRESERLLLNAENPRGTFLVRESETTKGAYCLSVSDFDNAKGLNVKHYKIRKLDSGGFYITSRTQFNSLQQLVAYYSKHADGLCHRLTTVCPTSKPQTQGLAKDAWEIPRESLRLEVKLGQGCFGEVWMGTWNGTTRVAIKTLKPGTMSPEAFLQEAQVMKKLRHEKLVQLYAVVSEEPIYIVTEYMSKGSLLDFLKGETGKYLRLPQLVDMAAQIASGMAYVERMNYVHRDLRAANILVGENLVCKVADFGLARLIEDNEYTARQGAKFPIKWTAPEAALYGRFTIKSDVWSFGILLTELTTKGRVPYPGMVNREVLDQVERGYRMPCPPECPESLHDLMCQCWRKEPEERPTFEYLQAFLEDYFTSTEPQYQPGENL
# pp60^c-src [4] = molecular target: T1, pp60^c-src; experiment: Src inhibition (RR-SRC phosphorylation), Cellular Mimetic assay; conditions: inhibitor 100 μM; Table IX
# Target sequence in this assay (P12931 whole entry): as the sequence (P12931 whole entry, species assumed) above
smiles,measurement,setting,value
O=C(NCc1cccc(O)c1)c1cc2cc(F)ccc2[nH]1 [KX1-004],protection against cisplatin-induced hearing loss,Guinea pigs,protected against ciplatin-induced hearing loss
same,"average threshold shift, 0.5 kHz",Chinchillas [1]; Day 1,3.75
same,"average threshold shift, 1 kHz",Chinchillas [1]; Day 1,6.875
same,"average threshold shift, 2 kHz",Chinchillas [1]; Day 1,25
same,"average threshold shift, 4 kHz",Chinchillas [1]; Day 1,42
same,"average threshold shift, 8 kHz",Chinchillas [1]; Day 1,22.5
same,"threshold shift, 0.5 kHz",Chinchillas [1]; Day 1,0 (2×) and 5 and 10
same,"threshold shift, 1 kHz",Chinchillas [1]; Day 1,2.5 and 20 and 0 and 5
same,"threshold shift, 2 kHz",Chinchillas [1]; Day 1,0 and 25 and 20 and 55
same,"threshold shift, 4 kHz",Chinchillas [1]; Day 1,10 and 35 and 68 and 55
same,"threshold shift, 8 kHz",Chinchillas [1]; Day 1,0 and 30 and 35 and 25
same,"average threshold shift, 0.5 kHz",Chinchillas [1]; Day 3,5.4
same,"average threshold shift, 1 kHz",Chinchillas [1]; Day 3,6.9
same,"average threshold shift, 2 kHz",Chinchillas [1]; Day 3,18
same,"average threshold shift, 4 kHz",Chinchillas [1]; Day 3,27
same,"average threshold shift, 8 kHz",Chinchillas [1]; Day 3,15
same,"threshold shift, 0.5 kHz",Chinchillas [1]; Day 3,5 (3×) and 0 and 12
same,"threshold shift, 1 kHz",Chinchillas [1]; Day 3,7.5 and 5 and 2 and 0 and 20
same,"threshold shift, 2 kHz",Chinchillas [1]; Day 3,0 (2×) and 15 and 40 and 35
same,"threshold shift, 4 kHz",Chinchillas [1]; Day 3,10 and 0 and 25 and 55 and 45
same,"threshold shift, 8 kHz",Chinchillas [1]; Day 3,0 (2×) and 15 (2×) and 45
same,"average threshold shift, 0.5 kHz",Chinchillas [1]; Day 7,8
same,"average threshold shift, 1 kHz",Chinchillas [1]; Day 7,6
same,"average threshold shift, 2 kHz",Chinchillas [1]; Day 7,15
same,"average threshold shift, 4 kHz",Chinchillas [1]; Day 7,24
same,"average threshold shift, 8 kHz",Chinchillas [1]; Day 7,18
same,"threshold shift, 0.5 kHz",Chinchillas [1]; Day 7,0 and 5 and 8 and 15 and 12
same,"threshold shift, 1 kHz",Chinchillas [1]; Day 7,0 (3×) and 15 (2×)
same,"threshold shift, 2 kHz",Chinchillas [1]; Day 7,0 (2×) and 15 and 40 and 20
same,"threshold shift, 4 kHz",Chinchillas [1]; Day 7,0 and 5 and 15 and 55 and 45
same,"threshold shift, 8 kHz",Chinchillas [1]; Day 7,0 (2×) and 20 and 30 and 40
same,"average threshold shift, 0.5 kHz",Chinchillas [1]; Day 20,3
same,"average threshold shift, 1 kHz",Chinchillas [1]; Day 20,1.25
same,"average threshold shift, 2 kHz",Chinchillas [1]; Day 20,6.25
same,"average threshold shift, 4 kHz",Chinchillas [1]; Day 20,9
same,"average threshold shift, 8 kHz",Chinchillas [1]; Day 20,3.75
same,"threshold shift, 0.5 kHz",Chinchillas [1]; Day 20,0 (2×) and 5 and 7
same,"threshold shift, 1 kHz",Chinchillas [1]; Day 20,0 (3×) and 5
same,"threshold shift, 2 kHz",Chinchillas [1]; Day 20,0 (2×) and 15 and 10
same,"threshold shift, 4 kHz",Chinchillas [1]; Day 20,0 (2×) and 11 and 25
same,"threshold shift, 8 kHz",Chinchillas [1]; Day 20,−5 and 5 and 0 and 15
same,"average threshold shift, 0.5 kHz",Chinchillas [1]; Pretest,26.6
same,"average threshold shift, 1 kHz",Chinchillas [1]; Pretest,24.5
same,"average threshold shift, 2 kHz",Chinchillas [1]; Pretest,20
same,"average threshold shift, 4 kHz",Chinchillas [1]; Pretest,12.4
same,"average threshold shift, 8 kHz",Chinchillas [1]; Pretest,4
same,"threshold shift, 0.5 kHz",Chinchillas [1]; Pretest,30 and 35 and 25 and 20 and 23
same,"threshold shift, 1 kHz",Chinchillas [1]; Pretest,22.5 and 25 (4×)
same,"threshold shift, 2 kHz",Chinchillas [1]; Pretest,25 (3×) and 10 and 15
same,"threshold shift, 4 kHz",Chinchillas [1]; Pretest,20 and 10 and 12 and 5 and 15
same,"threshold shift, 8 kHz",Chinchillas [1]; Pretest,10 (2×) and 0 (3×)
same,protection against the noise exposure,"Chinchillas [1]; in vivo, listed as CH-65",provided protection against the noise exposure
same,"average dB threshold shifts, treated ears versus control",Chinchillas [2],lower
"CCOc1cc(/C=C(\C#N)C(N)=O)cc(CSc2ccccc2)c1O [ST-638, reference compound]",IC50,pp60^c-src [3],18 µM
same,% Inhibition at 100 μM (std. dev.),pp60^c-src [4],37 (+/−5) %
